# Patent US20220387358A1, “CERAMIDE ANALOG SACLAC MODULATES SPHINGOLIPID LEVELS AND MCL-1 SPLICING TO INDUCE APOPTOSIS IN ACUTE MYELOID LEUKEMIA” (University of Virginia Patent Foundation, priority 2019, published 2022)
# “Also recorded” adds a separate entry of the source. Where two headings read alike, the source gives them in different places.
# Columns and labels:
# sphingosine in the liver = test: Sphingosine in the liver after SACLAC administration; format: in vivo, Swiss Webster mice
# 30 human AML cell lines = test: Cell viability MTS assay, panel of cell lines; format: cell-based; conditions: 24 and 48-hour time points
# Method: (§1) For cell viability, cell lines were plated at 2.5×10^4 cells per well in a 96-well plate and treated with […] or DMSO vehicle (0.4% of total volume) for the indicated time points and doses. At the experiment end point, 3-(4,5-Dimethylthiazol-2-yl)-5-(3-carboxymethoxyphenyl)-2-(4-sulfophenyl)-2H-tetrazolium (MTS) Cell Proliferation Colorimetric Assay Kit (# K300-5000, BioVision, Inc., Milpitas, Calif., United States of America) reagent was added and incubated for 2 hours. Conversion of MTS to formazan product was measured by absorbance at 490 nm using a BioTek Cytation 3 plate reader (BioTeck, Winooski, Vt., United States of America). Absorbance was normalized to DMSO control, which was defined as 100% viability. Due to limited cell numbers, patient samples and normal samples were plated at 5×10^3 cells per well in a 384-well plate with […] or DMSO control for the indicated time points and doses. At the experiment end point, a luminescent reagent sold under the tradename [sequence]-GLOTM (#G7572, Promega Corporation, Madison, Wis., United States of America) was added. After 15 minutes, luminescence was read on a BioTek Cytation 3 plate reader (BioTek, Winooski, Vt., United States of America). Absorbance was normalized to DMSO control, which was defined as 100% viability.
# [1] = Mouse serum SACLAC levels by formulation and route; format: in vivo
# Method: More particularly, SACLAC was dissolved in 2-hydroxypropyl-β-cyclodextrin (β-HPCD) (53). In addition, a SACLAC nanoliposome was prepared.
# human MV4-11 AML cells = test: MV4-11 AML xenograft model in NSG mice; format: in vivo
# Method: MV4-11 AML cells expressing luciferase (luc2) and YFP (39) or U937 AML cells expressing luc2 and tdTomato (#72486, Addgene, Watertown, Mass., United States of America) were used to investigate the efficacy of SACLAC in NOD-scid […] (NSG) mice (Jackson Laboratories, Bar Harbor, Me., United States of America). Maximum tolerated dose and pharmacokinetic studies were also performed to determine safety and delivery of compound.
# To assess the efficacy of SACLAC in a transplantable human AML model, two cell line models were used. For the MV4-11 model, 2.5×10^6 luciferase and yellow fluorescent protein (YFP)-expressing MV4-11 cells in HBSS were introduced into 6- to 8-week-old female NSG mice via tail-vein injections. After 10-12 days, engraftment was confirmed using bioluminescence imaging with the IVIS Lumina LT Series III imaging system (PerkinElmer Inc., Waltham, Mass., United States of America). Mice were equally randomized into two groups of three mice and treated with vehicle or SACLAC at 5 mg/kg/day five times per week for 18 total injections. At the end of the treatment, animals were euthanized and peripheral blood was collected for flow cytometry analysis.
# Red blood cells (RBC) were lysed with RBC Lysis Buffer (#420301, BioLegend, San Diego, Calif., United States of America) followed by cell surface staining with anti-human CD45 antibodies (#304014, clone HI30, BioLegend, San Diego, Calif., United States of America) and 7AAD (#420404, BioLegend, San Diego, Calif., United States of America) to detect viable human white blood cells (WBC) using an LSR II flow cytometer and BD FACS Diva software. Viable cells were identified by gating on 7AAD-negative cells gated from singlets (SSC-A and FSC-W scales), after excluding the debris (SSC-A and FSC-A scales). Percentage of YFP, tdTomato or hCD45 positive cells was determined in FlowJo software (Becton Dickinson, Franklin Lakes, N.J., United States of America). All animal studies were performed with IACUC approval.
# OCI-AML2 cells = test: Western blot of SF3B1, Mcl-1S and Mcl-1L protein expression; format: cell-based, human; conditions: 24 hours
# Method: Cells were plated at 2.5×10^5 cells per ml in 6-well plates and treated with drug, vehicle or siRNA at the indicated doses and time points. Cells were harvested, washed with PBS and lysed prior to preparation of protein extracts for western blotting.
# More particularly, cells were lysed with RIPA buffer (#R0278, Sigma, St. Louis, Mo., United States of America) containing phosphatase inhibitor cocktails 2 and 3 (Sigma #P5726, #P0044) and protease inhibitor cocktail (#P8340, Sigma, St. Louis, Mo., United States of America). Protein was quantified using a bicinchoninic acid (BCA) protein assay kit (#23225, Pierce, Waltham, Mass., United States of America). Samples were resolved on a Bolt 4-12% SDS-PAGE gel (#NW00082, ThermoFisher Scientific, Waltham, Mass., United States of America) and transferred to PVDF membrane (#170-4274, Bio-Rad Laboratories, Hercules, Calif., United States of America). Antibodies were obtained from Cell Signaling Technology (Danvers, Mass., United States of America) unless indicated otherwise. Primary antibodies used were: Mcl-1 (#5453, RRID #AB 10694494), SF3B1 (#14434, RRID #AB 2798479), β-actin (#3700, RRID #AB_2242334) and AC (BD Biosciences #612302 (San Jose, California, United States of America), RRID #AB_399617). Secondary antibodies used were HRP-linked goat anti-mouse (#7076, RRID #AB_330924) or goat anti-rabbit IgG (#7074, RRID # AB_2099233). Clarity Max Western ECL Substrate (#1705062, Bio-Rad Laboratories, Hercules, Calif., United States of America) was added to visualize relative protein expression by chemiluminescence using the Bio-Rad ChemiDoc MP imaging system (Bio-Rad Laboratories, Hercules, Calif., United States of America). Quantification was done using Bio-Rad ImageLab 6.0.1 software (Bio-Rad Laboratories, Hercules, Calif., United States of America). For quantification, bands were normalized to β-actin as a loading control.
# OCI-AML2 = test: Cell viability MTS assay; format: cell-based; conditions: Homo sapiens, 24-hour treatment
# Method: as §1
# THP-1 = test: Cell viability MTS assay; format: cell-based; conditions: Homo sapiens, 24-hour treatment
# Method: as §1
# HL-60/VCR = test: Cell viability MTS assay; format: cell-based; conditions: Homo sapiens, HL60/VCR; 24-hour treatment
# Method: as §1
smiles,measurement,setting,value
"CCCCCCCCCCCCCCC[C@@H](O)[C@H](CO)NC(=O)CCl [SACLAC, N-[(2S,3R)-1,3-dihydroxyoctadecan-2-yl]2-chloroacetamide]",time that liver sphingosine levels were reduced after treatment,sphingosine in the liver,at least 6 hours
same,EC50,30 human AML cell lines; read-out: average EC50 across 30 human AML cell lines,3.2 µM
same,EC50,"30 human AML cell lines; Homo sapiens, 48 h, read-out: average EC50 across 30 human AML cell lines",~3 µM
same,EC50,"30 human AML cell lines; Homo sapiens, 48 h, read-out: EC50 of 25 of 30 cell lines, 25 of 30 cell lines",< 5 µM
same,clearance,[1]; all treatment groups,rapidly cleared
same,serum levels,"[1]; free SACLAC in DMSO, i.p.",low serum levels
same,maximum serum level,[1]; maximum over the formulations tested,~1 µM
same,serum levels,"[1]; β-HPCD, i.v.",improvement
same,toxicity in treated animals,human MV4-11 AML cells; 5 mg/kg i.v. in β-HPCD,No overt toxicity; also recorded: non-toxic
same,body weight of treated animals,"human MV4-11 AML cells; 5 mg/kg i.v. in β-HPCD, course of the study",weight gain; also recorded: did not lose weight
same,decrease in leukemic burden (circulating leukemic cells in blood),"human MV4-11 AML cells; 5 mg/kg tail-vein, five times per week, 18 injections",~75%
same,SF3B1 protein expression,OCI-AML2 cells; SACLAC,reduced
same,splicing factor SRSF1,OCI-AML2 cells; SACLAC,not affected
same,increase in the ratio of Mcl-1S to Mcl-1L,OCI-AML2 cells; increasing doses of SACLAC,3 fold
same,upregulation of the Mcl-1S isoform,OCI-AML2 cells; increasing doses of SACLAC,10 fold
same,EC50,OCI-AML2,1800 nM
same,EC50,THP-1,2600 nM
same,EC50,HL-60/VCR,3.3 µM
